# Experimental data as given in patent publication US11215617B2, “Treatment of metastatic prostate cancer” (The Regents of the University of California, priority 2013, dated 2022).
# “Also recorded” adds a separate entry of the source. Where a SMILES comes first, the peptide text is derived from it. The star is where a group is joined. Cbz = O=C(OCc1ccccc1)*
# Tests used:
# LNCaP-s17 cells [1] = test: Cell growth assay; assay type: cell-based, human
# AR-V7 = molecular target: T1, AR-V7 (Homo sapiens, UniProt P10275); test: AR-V7 protein degradation after cycloheximide block in CWR22rv1 cells; assay type: cell-based; conditions: MG132 5 μM, cycloheximide 50 μg/mL, 2 μM niclosamide, 8 h
# T1 construct: CWR22rv1 cells, which express high endogenous AR-V7; endogenous in cells; host or cells: CWR22rv1
# T1 sequence (P10275 1-644 isoform P10275-3): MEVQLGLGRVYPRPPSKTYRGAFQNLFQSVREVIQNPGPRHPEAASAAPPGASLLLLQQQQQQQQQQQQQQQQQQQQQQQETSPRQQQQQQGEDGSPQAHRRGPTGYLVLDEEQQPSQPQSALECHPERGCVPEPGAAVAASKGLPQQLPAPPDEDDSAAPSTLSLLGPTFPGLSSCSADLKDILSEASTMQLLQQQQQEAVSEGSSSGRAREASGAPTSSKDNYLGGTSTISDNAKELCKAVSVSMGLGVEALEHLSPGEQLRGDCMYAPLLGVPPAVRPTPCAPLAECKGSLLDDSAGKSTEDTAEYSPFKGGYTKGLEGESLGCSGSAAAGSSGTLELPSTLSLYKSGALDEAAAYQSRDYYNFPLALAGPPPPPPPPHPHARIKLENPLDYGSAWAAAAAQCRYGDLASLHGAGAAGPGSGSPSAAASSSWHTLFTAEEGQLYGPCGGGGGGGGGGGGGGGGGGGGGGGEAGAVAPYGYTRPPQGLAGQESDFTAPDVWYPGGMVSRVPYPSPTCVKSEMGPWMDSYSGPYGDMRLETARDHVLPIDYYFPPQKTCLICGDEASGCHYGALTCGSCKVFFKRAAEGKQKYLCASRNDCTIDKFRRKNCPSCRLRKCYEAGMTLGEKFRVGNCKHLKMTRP
# Description: At specified time points, cells were harvested, and the levels of AR-V7 protein were measured by Western blot using antibodies specific against AR-V7. […] The cell lysates were prepared at 8 h. AR-V7 protein levels were determined by Western blot analysis using antibodies specifically against AR-V7 and tubulin as a control.
# At specified time points, cells were harvested, and the levels of AR-V7 protein were measured by Western blot using antibodies specific against AR-V7.
# [2] = system: prostate cancer cells (C4-2 neo, C4-2 AR-V7, CWR22rv1); test: Cell growth assay (cell numbers counted, cell survival rate); assay type: cell-based; conditions: 0.5 μM niclosamide, 48 hours, media containing FBS
# Description: (§1) Total cell numbers were counted and the cell survival rate (%) was calculated. Cell survival rate (%)=(Treatment group cell number/Control group cell number)×100%. […] Total cell numbers were counted after 2, 4, and 7 days. […] The cells were treated as indicated and total cell numbers were counted.
# [3] = system: pz-HPV7 normal prostate epithelial cells; test: as above; assay type: cell-based; conditions: 0.5 μM niclosamide, 48 hours
# Description: as §1
# [4] = system: prostate cancer cells (C4-2 neo, C4-2 AR-V7, CWR22rv1); test: Cell death ELISA (apoptosis); assay type: cell-based; conditions: 0.5 μM niclosamide, 48 hours
# Description: (§2) Floating and attached cells were collected and homogenized in 400 μL of incubation buffer. The wells were coated with antihistone antibodies and incubated with the lysates, horseradish peroxidase-conjugated anti-DNA antibodies, and the substrate. Absorbance was measured at 405 nm.
# pz-HPV7 cells = test: Cell death ELISA (apoptosis); assay type: cell-based; conditions: 0.5 μM niclosamide, 48 hours
# Description: as §2
# [5] = system: prostate cancer cells (CWR22rv1, C4-2 AR-V7, C4-2 neo); test: Clonogenic assay; assay type: cell-based; conditions: 0, 0.5, 1.0 μM niclosamide
# C4-2B MR cells [6] = test: Clonogenic assay; assay type: cell-based
# AR = test: PSA luciferase assay in LNCaP cells, DHT induced; assay type: cell-based, human; conditions: niclosamide or enzalutamide with DHT overnight
# Description: LNCaP, C4-2 or 293 cells were transfected with pGL3-PSA6.0-Luc, pGL3-AREI/II-Luc reporters along with AR-V7, for example as indicated in the figures, in FBS or CS-FBS condition. Cell lysates were subjected to luciferase assays with the Luciferase Assay System (Promega).
# PSA [7] = test: PSA ELISA of culture supernatants of C4-2 AR-V7 cells; assay type: cell-based; conditions: CS-FBS, 1.0 μM niclosamide overnight
# Description: PSA levels were measured in the culture supernatants using ELISA (United Biotech, Inc., Mountain View, Calif.) according to the manufacturer's instructions.
# PSA [8] = test: Western blot of PSA protein in C4-2 AR-V7 cells; assay type: cell-based; conditions: CS-FBS, 1.0 μM niclosamide or 20 μM enzalutamide overnight
# Description: (§4) Whole cell protein extracts were resolved on SDS-PAGE and proteins were transferred to nitrocellulose membranes. […] Tubulin was used to monitor the amounts of samples applied. Following secondary antibody incubation, immunoreactive proteins were visualized with an enhanced chemiluminescence detection system (Millipore, Billerica, Mass.).
# [9] = system: recruitment of AR-V7 to PSA promoter; test: ChIP assay in C4-2 AR-V7 cells; assay type: cell-based; conditions: CS-FBS 3 days, niclosamide (0.5 μM and 1 μM) or 20 μM enzalutamide overnight
# Description: C4-2 neo and C4-2 AR-V7 cells were treated as noted herein. DNA-AR protein complexes were cross-linked inside the cells by the addition of 1% formaldehyde. Whole-cell extracts were prepared by sonication, and an aliquot of the cross-linked DNA-protein complexes was immunoprecipitated by incubation with the AR-specific antibody (AR-441 obtained from Santa Cruz Biotechnology) overnight at 4° C. with rotation. Chromatin-antibody complexes were isolated from solution by incubation with protein A/G agarose beads for 1 hour at 4° C. with rotation. The bound DNA-protein complexes were washed and eluted from beads with elution buffer (1% SDS and 0.1 mol/L NaHCO3), crosslinking was reversed, and DNA was extracted. The resulting chromatin preparations were analyzed by PCR using primers spanning either the proximal or the distal enhancer AREs of the PSA promoter. Isotype-matched IgG was used as control.
# C4-2B MR cells [10] = test: Cell growth assay; assay type: cell-based; conditions: different concentrations, 48 hours
# Description: as §1
# CWR22rv1 cells [11] = test: Cell growth assay; assay type: cell-based; conditions: dose and time dependent
# Description: Total cell numbers were counted after 3 or 5 days. […] Total cell numbers were counted or the cell survival rate (%) was calculated. Cell survival rate (%)=(Treatment group cell number/Control group cell number)×100%.
# C4-2B and C4-2B MR cells = test: Growth or viability (FIG. 22); assay type: cell-based
# [12] = system: C4-2B and C4-2B AbiR cells; test: Growth or viability (FIG. 23); assay type: cell-based
# STAT3 [13] = test: STAT3 activation in LNCaP-s17 cells; assay type: cell-based, human
# Description: as §4
# prostate cancer cells = test: Cell growth, migration, invasion and colony formation (FIGS. 16-19); assay type: cell-based; conditions: effect appears to be dose dependent
# LNCaP-s17 cells [14] = test: Cell migration or invasion (FIG. 24); assay type: cell-based, human
# LNCaP-STAT3C cells = test: Cell migration or invasion (FIG. 25); assay type: cell-based, human
# CWR22rv1 xenografts = test: CWR22rv1 xenograft tumor growth in SCID mice; assay type: in vivo; conditions: 3 weeks
# Description: (§3) CWR22rv1 cells (3 million) were mixed with matrigel (1:1) and injected subcutaneously into the flanks of 6-7 week male SCID mice. […] Tumors were measured using calipers twice a week and tumor volumes were calculated using length×width2/2. Tumor tissues were harvested after 3 weeks of treatment.
# Tumors were measured using calipers twice a week and tumor volumes were calculated using length×width2/2. Tumor tissues were harvested after 3 weeks of treatment. The results are depicted in FIGS. 40A-40D.
# as §3, with “For the in vivo experiment, CWR22Rv1” for “CWR22rv1”, “(4” for “(3”, “of” for “of 6-7 week”, “treatment. The results are depicted in FIGS. 42A-42D.” for “treatment.”
# CWR22Rv1 cells (4 million) were mixed with matrigel (1:1) and injected subcutaneously into the flanks of 6-7 week male SCID mice. […] Tumors were measured using calipers twice a week and tumor volumes were calculated using length×width2/2. Tumor tissues were harvested after 3 weeks of treatment.
# STAT3 [15] = conditions: DU145 cells, shown previously; cited from earlier work
# cancer cells = conditions: some reports suggest; cited from earlier work
# normal cells = conditions: some reports suggest; cited from earlier work
# [16] = system: cancer cell metastasis and migration; conditions: in vitro and in vivo, reported; cited from earlier work
# CWR22rv1 cells [17] = test: Clonogenic assay
# [18] = C4-2B MR cells, 0.5 μM or 1.0 μM niclosamide, 10 μM or 20 μM enzalutamide
structure (smiles),measurement,setting,value
N#C/C(=C/c1ccc(O)c(O)c1)C(=O)NCc1ccccc1 [AG490],reversal of enzalutamide resistance,"LNCaP-s17 cells [1]; 10 μM AG490 with 20 μM enzalutamide, 48 h",reverse enzalutamide resistance
CC(C)C[C@@H](C=O)NC(=O)[C@H](CC(C)C)NC(=O)[C@H](CC(C)C)NC(=O)OCc1ccccc1 [MG132] (Cbz-Leu-Leu-Leu-aldehyde),niclosamide effect on AR-V7 protein levels in presence of MG132,AR-V7,able to retard the niclosamide effect on AR-V7 protein levels
"O=C(Nc1ccc([N+](=O)[O-])cc1Cl)c1cc(Cl)ccc1O [niclosamide, (5-chloro-N-2chloro-4-nitro-phenyl)-2-hydroxybenzamide]",cell growth,[2],significantly inhibited cell growth
same,cell growth,[3],little effects
same,cell apoptosis (cell death ELISA),[4],significantly induced cell apoptosis
same,cell apoptosis (cell death ELISA),pz-HPV7 cells,little effect
same,clonogenic ability,[5],significantly inhibited clonogenic ability of prostate cancer cells in a dose dependent manner
same,colony formation,C4-2B MR cells [6]; [18],significantly inhibited colony formation; also recorded: inhibited colony formation in a dose dependent manner
same,colony size,C4-2B MR cells [6]; [18],significantly inhibited the colony size
same,colony formation,"C4-2B MR cells [6]; C42B MR cells, 0.25 μM niclosamide (FIGS. 37 and 38)",significantly inhibits colony formation
same,enhancement of enzalutamide inhibition of colony formation,"C4-2B MR cells [6]; C42B MR cells, 0.25 μM niclosamide with 20 μM enzalutamide",significantly enhances enzalutamide inhibition of colony formation
same,DHT induced AR transcriptional activity,AR,dramatically inhibited DHT induced AR transcriptional activity
same,PSA levels (ELISA),PSA [7],significantly inhibited PSA levels
same,PSA protein expression (western blot),PSA [8],significantly inhibited PSA protein expression
same,recruitment of AR-V7 to PSA promoter,[9],significantly reduced recruitment of AR-V7 to PSA promoter
same,cell growth (total cell numbers),C4-2B MR cells [10],significantly inhibited; also recorded: inhibited C4-2B MR cell growth in a dose dependent manner
same,enhancement of bicalutamide effects in vitro,CWR22rv1 cells [11],significantly enhanced bicalutamide effects
same,enhancement of the effect of enzalutamide on growth or viability,C4-2B and C4-2B MR cells,enhances the effect of enzalutamide
same,enhancement of the effect of abiraterone on growth or viability,[12],enhances the effect of arbiraterone
same,STAT3 activation,STAT3 [13],significantly inhibited STAT3 activation; also recorded: inhibited constitutively active STAT3 in a dose dependent manner
same,"cell growth, time dependent experiment","LNCaP-s17 cells [1]; 20 μM enzalutamide and 0.25 μM niclosamide individually or in combination, 2, 4 and 7 days",little effect
same,cell growth,prostate cancer cells,inhibits
same,colony formation,prostate cancer cells,inhibits
same,invasion,prostate cancer cells,inhibits
same,migration,prostate cancer cells,inhibits
same,cell migration or invasion,LNCaP-s17 cells [14],inhibits cell migration or invasion
same,cell migration or invasion,LNCaP-STAT3C cells,inhibits cell migration or invasion
same,enhancement of bicalutamide effects in vivo,"CWR22rv1 xenografts; bicalutamide 25 mg/kg p.o. + niclosamide 25 mg/kg i.p., 5 days per week",enhanced bicalutamide treatment; also recorded: significantly enhanced bicalutamide effects
same,tumor volume,"CWR22rv1 xenografts; enzalutamide 25 mg/kg p.o., niclosamide 25 mg/kg i.p., or both",decreased the tumor volume
same,xenograft tumor growth,"CWR22rv1 xenografts; niclosamide 200 mg/kg p.o. B.I.D., 5 days per week",significantly inhibited Rv1 xenograft tumor growth
same,STAT3 expression,STAT3 [15],able to inhibit STAT3 expression
same,activity against cancer cells,cancer cells,active against cancer cells
same,viability of normal cells,normal cells,minimal effects on the viability of normal cells
same,cancer cell metastasis and migration,[16],inhibit cancer cell metastasis and migration in vitro and in vivo
same,colony formation,"CWR22rv1 cells [17]; CWR22rv1 cells, 0, 0.5 μM or 1.0 μM niclosamide",inhibited colony formation in a dose dependent manner
same,enhancement of enzalutamide inhibition of colony formation,"CWR22rv1 cells [17]; CWR22rv1 cells, 0.25 μM niclosamide with 20 μM enzalutamide",significantly enhances enzalutamide inhibition of colony formation
